Results: patent US7378387B2, “Method of suppressing immune response by reducing intracellular content of glutathione in macrophages and monocytes” (Ajinomoto Co., Inc., priority 1997, dated 2008)
Positions of bridges follow the written chain, without caps; N, C: chain ends. Residues, ends and D or L forms follow the SMILES beside them. Chains are numbered I, II in the order given.

Key:
[1] = tested on: reduced glutathione in intraperitoneal macrophages; assay: Reduced glutathione in intraperitoneal macrophages of NOD mice by ACAS (Example 22); type: in vivo; details: doses given per substance
[2] = tested on: peritoneal exudate cells (macrophages); assay: Induction of oxidative or reductive macrophages by administration, monochlorobimane/ACAS (Example 9); type: in vivo, DBA/2 mice; details: intraperitoneally 20 μg/0.5 ml/h each, twice a week for three weeks, 9-11 weeks of age
Protocol: This was clarified by harvesting peritoneal exudate cells 20 hours after the completion of the administration, adhering the cells to the plastic surface, then reacting the cells with 10 μM of monochlorobimane at 37° C. for 30 minutes, and analyzing the reaction product with ACAS. The increase in the amounts of oxidative macrophages can easily be determined visually from the fact that almost no reaction product with monochlorobimane is observed, namely, a gray or blue image is provided, and the increase in the amounts of reductive macrophages from the fact that a red or yellow image is provided respectively. […] Meanwhile, the same examination was conducted by harvesting peritoneal exudate cells after 20 hours of the administration of 2 mg of N-acetylcystine (NAC).

[3] = tested on: macrophage-like cells from tissues of rheumatoid arthritis patients; assay: Intracellular GSH by ACAS in macrophage-like cells from tissues of rheumatoid arthritis patients (Example 17); type: cell-based, human; details: 3 hours; for induction of oxidative macrophage with the reduced amount of intracellular glutathione: added at 2 μM; for relative ratio of oxidative macrophages (reduced amount of intracellular glutathione) compared with saline-added group: added at 2 mM
Protocol: Synovial tissue was aseptically sampled from tissues resected during joint surgery. The sampled synovial tissue was rinsed in phosphate buffer, from which the surface was peeled off in a petri dish containing the same phosphate buffer. Then, the resulting synovial tissue was cut into pieces with a pair of scissors. To the pieces were added 2% hyaluronidase (manufactured by Sigma), 0.2% DNase (derived from bovine pancreas) and 5% collagenase, for enzymatic treatment at 37° C. for 2 hours. After discarding the resulting debris, a cell fraction recovered by centrifugation was adjusted to 5×10^5 cells/ml in a phenol red-free DMEM culture medium supplemented with 10% FCS (manufactured by Nikken Biology Co.). For 3 hours, the cells were allowed to adhere to the plastic surface. Plastic surface adherent macrophage-like cells harvested with a rubber policeman were then subjected to rinsing in combination with centrifugation three times using the culture medium under ice cooling. The resulting cells were designated as synovial tissue-derived macrophages and were then subjected to the following experiments.
By the same manner as in Example 3, macrophage-like cells were collected from tissues of rheumatoid arthritis patients, and were then suspended and adjusted in a phenol red-free RPMI 1640 culture medium supplemented with 10% fetal calf serum to 3×10^6 cells/ml. The suspension was divided in 100-μl portions on Lab-Tek Chamber Slide (#136439; manufactured by NUNC, CO.), for culturing in 5% CO2 at 37° C. for 3 hours; after discarding the nonadherent cells, the 200-μl serum-free culture medium further containing any of the following chemical agents was fed to the resulting culture, for reaction for 3 hours; and then, the resulting culture was rinsed three times, followed by addition of the serum-free culture medium of 200 μl and addition of monochlorobimane to a final concentration of 10 μM, for reaction for 30 minutes. The amount of intracellular GSH was assayed by imaging analysis with an ACAS system (manufactured by Meridian Co.).

[4] = tested on: adjuvant-induced arthritis; assay: Adjuvant-induced arthritis (AA) in rats, joint swelling (Examples 18 and 19); type: in vivo, Lewis rats; details: Table 4
Protocol: Adjuvant-induced arthritis was triggered in Lewis rats in a conventional manner; and the effects of chemical agents were examined in the animals. Adjuvant-induced arthritis is well known as an experimental arthritis inducible in rats [Taurog et al., Meth. Enzymol. 162, 339-355 (1988)]. […] An adjuvant is administered at 1 mg/0.1 ml per rate at a site of caudal root. The edema reaches its peak about 2 to 3 weeks after the administration of the adjuvant. The edema is triggered by inflammatory infiltration of monocytes. Swollen joints are measured with a micrometer every day; comparing the diameters of the joints prior to and after adjuvant administration and after initiation of the treatment with chemical agents with the diameters of the joints in the control group, the effects of the chemical agents were expressed as the ratio in % of joint swelling in the experimental groups to joint swelling in the control group. The effects were determined on day 15 after adjuvant administration. The chemical agents were given, starting the day next to the day of adjuvant administration, and every 3 days thereafter.
A single dose is 1 mg/kg for (NAC)2 and (NAC-OMe)2; 100 mg/kg for NAC; and 0.1 mg/kg for lentinan.
Adjuvant-induced arthritis was induced in Lewis rats in a conventional manner. In the same manner as in Example 11, the effects of chemical agents were examined in these rats. The conditions were the same as described above.

[5] = tested on: spontaneous onset of insulin-dependent diabetes mellitus; assay: Onset of diabetes mellitus in NOD mice dosed at age 9 to 11 weeks (Example 25); type: in vivo; details: nine times
Excerpt: NOD mice purchased from Nippon Clair, Co. were naturally mated together. Among the off spring mice, a colony of NOD mice with a high frequency of the spontaneous onset of insulin-dependent diabetes mellitus was established. Female NOD mice from the colony were used for the present experiment. Chemical agents were orally or intraperitoneally administered to the NOD mice aged 9 to 11 weeks three times per week, in total nine times; and based on the test results of urine glucose, positive or negative, the onset of diabetes mellitus was followed once per week. Urine glucose was detected, using Uropaper (BM Test Glucose 5000, manufactured by Yamanouchi Pharmaceuticals, Co. Ltd.). The onset was judged on week 22; the doses were the same as in Example 24.

[6] = tested on: spontaneous onset of insulin-dependent diabetes mellitus; assay: Onset of diabetes mellitus in NOD mice dosed at age 3 to 6 and 9 to 11 weeks (Example 24); type: in vivo; details: doses as in the table line, 15 times in total, judged on week 22, saline 60
Excerpt: NOD mice purchased from Nippon Clair, Co. were naturally mated together. Among the off spring mice, a colony of NOD mice with a high frequency of the spontaneous onset of insulin-dependent diabetes mellitus was established. Female NOD mice from the colony were used for the present experiment. […] Urine glucose was detected, using Uropaper (BM Test Glucose 5000, manufactured by Yamanouchi Pharmaceuticals, Co. Ltd.). The onset was judged on week 22.

[7] = tested on: insulin-non-dependent diabetes mellitus; assay: Blood sugar level in db/db mice (Example 26); type: in vivo; details: intraperitoneal, age 4 to 9 weeks, three times per week; at satiation; saline 100
Excerpt: db/db mice purchased from Nippon Clair, Co. were naturally mated together. Among the off spring mice, a colony of db/db mice with a high frequency of the spontaneous onset of insulin-non-dependent diabetes mellitus was established. Male db/db mice from the colony were used for the present experiment. Chemical agents were intraperitoneally administered to the db/db mice aged 4 to 9 weeks three times per week, in total 18 times; and based on the level of blood sugar in the mice at satiation, the effects of the chemical agents on the improvement of the diseased conditions of insulin-non-dependent diabetes mellitus were followed once per week. The doses were the same as in Example 24.

[8] = intraperitoneal dosing on alternate days from age 3-4 weeks
[9] = oral dosing on alternate days from age 3-4 weeks
[10] = intraperitoneal, judged on week 22, doses as in Example 24, saline 67

For O=C(O)CCCC[C@@H]1CCSS1 (racemic) [lipoic acid], the “relative ratio of oxidative macrophages compared with saline-dosed NOD mice” value (“relative ratio … with saline-dosed NOD mice” for short) [1, 8] was “same action is also observed”.
For CC(=O)N[C@@H](CSSC[C@H](NC(C)=O)C(=O)OC(C)C)C(=O)OC(C)C [(NAC-OiPr)2, N,N′-diacetylcystine diisopropyl ester], the “induction of oxidative macrophages on ACAS” value (shortened to “induction … on ACAS”) [2] was “induction of oxidative macrophages was confirmed” and the “induction of oxidative macrophage with the reduced amount of intracellular glutathione” value [3] was “confirmed”.
For COC(=O)[C@H](CSSC[C@H](NC(=O)[C@H](C)N)C(=O)OC)NC(=O)[C@H](C)N [(NAlaC-OMe)2, N,N′-di-L-alanylcystine dimethyl ester] (I: H-Ala-Cys-OMe / II: H-Ala-Cys-OMe; disulfide I:2-II:2), the “induction … on ACAS” value [2] was “induction of oxidative macrophages was confirmed”, the “induction of oxidative macrophage with the reduced amount of intracellular glutathione” value [3] was “confirmed” and the “Ratio in % of joint swelling in experimental groups to joint swelling in control group” value (shortened to “Ratio in % of joint swelling”) ([4]; intravenous) was 45%. For the same compound, the “Frequency (%) of onset of diabetes mellitus” value (from here on “Frequency (%)”) ([5]; route not given, judged on week 22, saline 67) was 11%.
CC(=O)N[C@@H](CSSC[C@H](NC(C)=O)C(=O)OCCCCO[N+](=O)[O-])C(=O)O [N,N′-diacetylcystine nitroxybutyl ester] was tested, and the “induction … on ACAS” value [2] was “induction of oxidative macrophages was confirmed” and the “induction of oxidative macrophage with the reduced amount of intracellular glutathione” value [3] was “confirmed”.
For CC(=O)N[C@@H](CS)C(=O)OCCCCO[N+](=O)[O-] [N-acetylcysteine nitroxybutyl ester], the “relative ratio of oxidative macrophages (reduced amount of intracellular glutathione) compared with saline-added group” value [3] was “same action was also observed”, the “relative ratio … with saline-dosed NOD mice” value [1, 8] was “same action is also observed” and the “relative ratio … with saline-dosed NOD mice” value [1, 9] was “same action is also observed”.
With CCOC(=O)CNC(=O)[C@H](CS)NC(=O)CC[C@H](N)C(=O)OCC [glutathione diethyl ester] the “relative ratio of oxidative macrophages (reduced amount of intracellular glutathione) compared with saline-added group” value [3] was “same action was also observed”, the “Ratio in % of joint swelling” value ([4]; intraperitoneal, 100 mg/kg) was 132% and the “relative ratio … with saline-dosed NOD mice” value [1, 8] was “same action is also observed”. For the same compound, the “relative ratio … with saline-dosed NOD mice” value [1, 9] was “same action is also observed”, the “Frequency (%)” value ([6]; intraperitoneal) was 0% and the “Frequency (%)” value ([6]; oral) was 0%. The “Frequency (%)” value [5, 10] was 67%, the “Relative ratio % of blood sugar level, 6 weeks” value [7] was 82% and the “Relative ratio % of blood sugar level, 7 weeks” value [7] was 62%. For the same compound, the “Relative ratio % of blood sugar level, 8 weeks” value [7] was 60%.
In the case of COC(=O)C(N)CCC(=O)NC(CS)C(=O)OC (stereo not shown) [γ-glutamylcysteine dimethyl ester], the “relative ratio of oxidative macrophages (reduced amount of intracellular glutathione) compared with saline-added group” value [3] is reported as “same action was also observed”, the “Ratio in % of joint swelling” value ([4]; intraperitoneal, 100 mg/kg) is reported as 120% and the “relative ratio … with saline-dosed NOD mice” value [1, 8] is reported as “same action is also observed”. The “Frequency (%)” value ([6]; intraperitoneal) was 10%, the “Frequency (%)” value ([6]; oral) was 20% and the “Frequency (%)” value [5, 10] was 55%. For the same compound, the “Relative ratio % of blood sugar level, 6 weeks” value [7] was 85%, the “Relative ratio % of blood sugar level, 7 weeks” value [7] was 65% and the “Relative ratio % of blood sugar level, 8 weeks” value [7] was 60%.
In the case of glutathione nitroxybutyl ester, the “relative ratio of oxidative macrophages (reduced amount of intracellular glutathione) compared with saline-added group” value [3] is reported as “same action was also observed”, the “relative ratio … with saline-dosed NOD mice” value [1, 8] is reported as “same action is also observed” and the “relative ratio … with saline-dosed NOD mice” value [1, 9] is reported as “same action is also observed”.
